Publication PMC11861906, “Structural basis for lipid-mediated activation of G protein-coupled receptor GPR55” (Nature Communications, 2025)

Molecular target: wt GPR55 (Gα12) (Homo sapiens, UniProt Q9Y2T6)
Experiment: BRET² G protein dissociation assay, wt GPR55 with Gα12
Assay type: cell-based
Settings: for ΔBRET² ratio (Mean): GPR55-wt-G12
Description: Guided by structural insights, we employed the G protein dissociation assay to validate the G protein selectivity of GPR55. The sequences of Gα13 and Gα12 are highly similar (76% sequence similarity) and only seven Gα13 residues differ within a 4 Å sphere of the receptor- G protein interaction site (Fig. 5d). Therefore, we included Gα12 in our assays as a control since it was reported that 1-AG-PI-activated GPR55 signals exclusively via Gα13[10]. Herein, we observed robust G protein activation (concluded from a BRET² ratio decrease) when GPR55 was co-expressed with Gα13 (Fig. 5b), even without the addition of any ligand. (Fig. 2f and Supplementary Table S3). This observation is indicative of constitutive activity; however, it could also be explained by GPR55 interaction with cellular lipids that are ubiquitously present. […] (Fig. 5c).
G protein dissociation assays were performed according to the original protocols of the TRUPATH BRET² assay[47],[87] but with subtle modifications as previously described[61],[88],[89]. All reagents and cells were obtained from Thermo Fisher Scientific unless indicated otherwise. The coding sequences for the G protein biosensors[47] (Gα12-Rluc8, Gα13-Rluc8, wt Gβ3, and Gγ9-GFP), the wt GPR55, the construct used for cryo-EM (with GFP bearing a G67A mutation to disrupt fluorescence properties[48] for BRET² assays), GPR55 binding pocket mutants (G152^4.56F, G152^4.56W, N171^ECL2Q, N171^ECL2A, T176^5.33A, R253^6.62A), and the wt TBXA2R were codon-optimized for Homo sapiens, gene-synthesized, and sub-cloned into pcDNA^TM3.1(+) between NheI and HindIII restriction sites by GeneArt (Thermo Fisher Scientific). […] Freshly grown cells were washed with Dulbecco’s Balanced Salt Solution (DPBS, cat. #14200075) and detached using trypsin-ethylenediaminetetraacetic acid (trypsin-EDTA) (cat. #25300-062). Then, the cells were reconstituted to 500,000 cells per mL with fresh medium, and 1,000,000 cells were seeded into each well of a 6-well plate. After 3 h incubation at 37 °C and 5% CO2, adherent cells were transfected with 600 ng DNA (1:1:1:1 ratio of plasmid DNA for GPR55, wt Gβ3, Gγ9-GFP, and Gα12-Rluc8 or Gα13-Rluc8). Plasmid DNA was mixed with 1.5 µL Lipofectamine^TM 2000 (cat. #11668027) in Opti-MEM^TM medium (cat. #31985062) and incubated for 20 min. Then, the mixture was added to each well of the 6-well plate following 24 h incubation at 37 °C and 5% CO2. Transfected cells were washed with DPBS, detached using EDTA (Versene, cat. #15040066), and reconstituted into fresh medium at 500,000 cells mL^−1. From this suspension, 50,000 cells were seeded into each well of a white-bottom 96-well plate (Nunc^TM MicroWell^TM 96 wells, cat. #136101) following overnight incubation at 37 °C and 5% CO2. Then, the adherent cells were washed with assay medium [Hank’s balanced salt solution (HBSS, cat. #14065056) plus 20 mM HEPES pH 7.4 (cat. #15630056)] and finally reconstituted into 50 µL of the same medium. […] Methoxy e-Coelenterazine was used as luciferase substrate (Prolume Purple, NanoLight Technology, cat. #369), reconstituted at 1 mM in methanol and diluted to 37.5 µM with assay buffer (7.5 µM final assay concentration). The assay was started by the addition of 20 µL luciferase substrate to each well of the assay plate using a Multidrop^TM Combi reagent dispenser (Thermo Fisher Scientific), followed by 5 min incubation at room temperature. Then, 30 µL of agonist dilutions or DMSO control was added (final DMSO concentration 1.5%), followed by an additional 5 min incubation at room temperature.

Chain of wt GPR55 (Gα12) (Q9Y2T6 whole entry): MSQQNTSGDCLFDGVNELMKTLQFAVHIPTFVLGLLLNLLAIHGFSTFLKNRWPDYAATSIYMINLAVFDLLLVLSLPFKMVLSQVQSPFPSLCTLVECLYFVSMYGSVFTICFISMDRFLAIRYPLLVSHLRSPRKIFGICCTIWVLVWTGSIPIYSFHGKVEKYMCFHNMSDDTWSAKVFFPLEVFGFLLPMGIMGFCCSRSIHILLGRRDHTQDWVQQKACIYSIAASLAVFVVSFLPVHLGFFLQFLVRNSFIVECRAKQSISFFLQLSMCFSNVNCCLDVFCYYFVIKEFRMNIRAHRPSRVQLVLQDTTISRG

Row | SMILES | ΔBRET² ratio (Mean) (3e-10 M) | ΔBRET² ratio (Mean) (1e-9 M) | ΔBRET² ratio (Mean) (3e-9 M) | ΔBRET² ratio (Mean) (1e-8 M) | ΔBRET² ratio (Mean) (3e-8 M) | ΔBRET² ratio (Mean) (1e-7 M) | ΔBRET² ratio (Mean) (3e-7 M) | ΔBRET² ratio (Mean) (1e-6 M) | ΔBRET² ratio (Mean) (3e-6 M) | ΔBRET² ratio (Mean) (1e-5 M) | ΔBRET² ratio (Mean) (3e-5 M) | G protein activation at GPR55-transfected cells (in words) (wt GPR55, Gα12)
1 | Cc1cccc(N2CCN(C(=O)c3cc(S(=O)(=O)N(C)C)ccc3N3CCCC3)CC2)c1C [ML184, 3-[[4-(2,3-dimethylphenyl)-1-piperazinyl]carbonyl]-N,N-dimethyl-4-(1-pyrrolidinyl)benzenesulfonamide] | 0.009016 | 0.003569 | -0.002484 | -0.008889 | -0.006497 | -0.00961 | -0.01427 | -0.01536 | -0.01786 | -0.02016 | -0.02115 | 
2 | CCCCC[C@H](O)/C=C/[C@@H]1[C@@H](C/C=C\CCCC(=O)O)[C@H]2CO[C@@H]1C2 [U-46619] |  |  |  |  |  |  |  |  |  |  |  | inactive
